# Experimental data taken from ChEMBL document CHEMBL4480401, “Determination of Ligand Binding Epitope Structures Using Polarization Transfer from Hyperpolarized Ligands” (J Med Chem, 2019).
# The source made the active and inactive calls. The calls are words filed in the database; no cut-off is given here.
# Biological target: T1, Dihydrofolate reductase (Homo sapiens) (UniProt P00374)
# T1 sequence (whole entry): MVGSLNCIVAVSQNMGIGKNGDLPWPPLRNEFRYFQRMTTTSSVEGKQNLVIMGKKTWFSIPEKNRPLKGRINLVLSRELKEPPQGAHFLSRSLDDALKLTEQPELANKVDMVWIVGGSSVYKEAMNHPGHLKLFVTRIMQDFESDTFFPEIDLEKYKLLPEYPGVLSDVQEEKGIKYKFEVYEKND
# Assay: Binding affinity to [13C]-labeled DHFR DHFR (unknown origin) expressed in Escherichia coli BL21(DE3) using hyperpolarized compound sample at 1.6 mM by dissolution dynamic nuclear polarization and NMR spectroscopy
smiles,measurement,value
Nc1nc(=O)c2nc(CNc3ccc(C(=O)N[C@@H](CCC(=O)O)C(=O)O)cc3)cnc2[nH]1,Activity,Active
